Test results as given in patent publication US5424314A, “20,21-dinoreburnamenines” (Roussel-Uclaf, priority 1990, dated 1995).
Counter-ions that a name gives are not always drawn.

Key:
[1] = system: mouse; test: Acute toxicity: lethal dose LD0 after oral administration to a mouse; type: in vivo
Procedure: The lethal doses LD0 of the different compounds tested were evaluated after oral administration to a mouse.

[2] = system: alpha 2 adrenergic receptors; test: Affinity for alpha 2 adrenergic receptors (H^3 rauwolscine displacement, cortex homogenate); type: binding, male rate (rat) brain cortices; conditions: H^3 rauwolscine 0.15 nM, 45 minutes at 25° C., pH 7.4; concentrations inhibiting 50% of specific fixation compared with phentolamine
Procedure: 2 Affinity for Alpha 2 Adrenergic Receptors
10 cortices removed from the brains of male rate weighing on average 150 g were homogenized in 90 ml of 0.32M sucrose. After centrifuging the homogenized mixture at 1,000 g for 10 minutes at 0° C., the supernatant was centrifuged at 30,000 g for 10 minutes at 0° C.+4° C. The deposit was suspended in 240 ml of 50 mM Tris HCl pH 7.7 buffer and centrifuged at 30,000 g for 15 minutes at 0° C.+4° C. The new deposit was suspended in 480 ml of 50 mM NaKPO4 pH 7.4 buffer. Then 2 ml of suspension were incubated for 45 minutes at 25° C. in the presence of H^3 rauwolscine it a concentration of 0.15 nM:
i) on its own, ii) with increasing concentrations of the product under test or, iii) to determine the non-specific fixation, with non-radioactive phentolamine at a concentration of 10^-5 M.
The incubated suspensions were filtered on Whatman GF/C and the filters were washed three times with 5 ml of NaKPO4 pH 7.4 buffer at 0° C. The radioactivity of the filters was measured by liquid scintillation. The affinity of the product tested for the alpha 2 adrenergic receptors was determined relative to phentolamine as reference product.
CD=concentration of phentolamine inhibiting 50% of the specific fixation of H^3 rauwolscine;
CX=concentration of the product tested inhibiting 50% of the specific fixation of H^3 rauwolscine. […]

[3] = system: mice of CD1, Charles River type; test: Hypobaric anoxia: survival time of mice subjected to a lethal hypoxic atmosphere; type: in vivo; conditions: relative to vehicle control animals (70 to 80 seconds); male CD1 mice, depression of 620 mm Hg
Description: The test consisted of measuring the survival time of mice subjected to a lethal hypoxic atmosphere in which male mice of CD1, Charles River type, weighing 20 to 25 grams, were placed individually in a 2 liter enclosure in which a depression of 620 mm Hg was brought about by means of a vacuum pump, according to the following kinetics: […]
______________________________________
The survival time was the time between the start of the depression (T0) and the last respiratory movement; it was on the order of 70 to 80 seconds on the control animals. The results are given as a percentage of the increase in the survival time relative to the control animals who received the vehicle.

For `C=Cc1ccc2c3c4n(c2c1)C=CC1CCCN(CC3)C41` (racemic) [Example 1, [16 α(±)]-11-ethenyl-20,21-dinoreburnamenine maleate], the “LD0 (maximum dose which did not cause any mortality in 8 days)” value [1] was ≥ 400 and the “RBA (relative affinity, relative to phentolamine as reference product)” value [2] was 31.

For `CC(=O)c1ccc2c3c4n(c2c1)C=CC1CCCN(CC3)C41` (racemic) [Example 4, [16α(±)]-11-acetyl-20,21-dinoreburnamenine acid maleate], the “% increase of survival time” value [3] was “+22%” and the “LD0 (maximum dose which did not cause any mortality in 8 days)” value [1] was 100.

`CC(O)c1ccc2c3c4n(c2c1)C=CC1CCCN(CC3)C41` (racemic) [Example 5] was tested, and the “% increase of survival time” value [3] was “+21%” and the “LD0 (maximum dose which did not cause any mortality in 8 days)” value [1] was 100.

For `NC(=O)c1ccc2c3c4n(c2c1)C=CC1CCCN(CC3)C41` (racemic) [Example 10, [16α(±)]-20,21-dinoreburnamenine-11-carboxamide], the “% increase of survival time” value [3] was “+22%”.
